This note sets out measurements from patent US20230414762A1, “PROSTATE-SPECIFIC MEMBRANE ANTIGEN (PSMA)-TARGETED PRODRUG FOR SELECTIVE KILLING OF CELLS […]” (The Johns Hopkins University, priority 2020, published 2023).

Non-standard residues stand in square brackets, D forms with d. Residues, ends and D or L forms follow the SMILES beside them. *: point of attachment. Dolaproine = CO[C@@H]([C@@H]1CCCN1)[C@@H](C)C(=O)O; Dil = CC[C@H](C)[C@H](NC)[C@@H](CC(=O)O)OC; X2 = C[C@@H](N*)[C@@H](O)c1ccccc1; NMeV = CN[C@H](C(=O)O)C(C)C

In one series the test system is PSMA+ PC3 PIP cells. As to the kind of experiment: In vitro cytotoxicity (XTT cell proliferation assay), PSMA+ PC3 PIP cells. The class given is cell-based, human. For orientation: Formazan colour is commonly taken as a measure of viable cells.
The next series deals with PSMA− PC3 flu cells. Briefly: In vitro cytotoxicity (XTT cell proliferation assay), PSMA- PC3 flu cells. It counts as cell-based, human.
Series [1] in a line: In vivo toxicity in healthy mice (weight, survival, histopathology). More on the design: species or system C57BL/6 mice. As to conditions: healthy C57BL/6 mice, MMAE (free drug) 80 μg/kg IP daily for 30 days. The procedure:
The potential toxicity of SBPD-1 was evaluated in immunocompetent animals. MMAE (80 μg/kg), SBPD-1 (160 μg/kg), and 5% DMSO were administered to healthy C57BL/6 mice (n=5). Animals were monitored for 80 days after initiation of administration. […] Lung, liver, kidneys, salivary and lacrimal glands were removed from all tested animals at Day 80 after initiation of SBPD-1 treatment. […] Peripheral blood also was obtained from mice injected with vehicle, SBPD-1, and healthy untreated animals, and prepared serum for chemistry studies (n=5).
Male C57BL/6 mice were purchased from Jackson Laboratory. Ten-week-old mice were injected with the indicated doses of MMAE (formulated in 5% DMSO), SBPD-1 (formulated in saline) or 5% DMSO intraperitoneally (daily for 30 days, n=5). Animals were monitored daily for weight changes and other abnormalities for 80 days. Animals were euthanized in a CO2 chamber at day 80, and blood, lung, liver, kidney, salivary gland, and lacrimal gland were collected for complete blood counts, blood chemistry, and histopathological analyses. Complete blood counts including white blood cells (WBC), red blood cells (RBC), hemoglobin (HGB), hematocrit (HCT), mean corpuscular volume (MCV), mean corpuscular hemoglobin (MCH), mean corpuscular hemoglobin concentration (MCHC), and platelet (PLT) were measured using scil Vet ABC™ Hematology Analyzer (scil animal care company, Gurnee, IL). Blood chemistry parameters including blood urea nitrogen (BUN), glucose (GLU), Alkaline Phosphatase (ALP), total protein (T-Pro), Alanine aminotransferase (ALT) and Creatinine (Cre) were measured with Spotchem EZ chemistry analyzer (Arkray USA, Edina, MN). Hematoxylin and eosin slides were generated for five organs and examined by certified veterinary pathologist.

Series [2] in a line: Serum stability in murine serum (HPLC). The class given is in vitro ADME, mouse. As to conditions: 48 h. How it is done:
Serum stability of prodrugs was analyzed using a modified method from previously published work. Chu et al., 2012. Prodrug stock solution (8 μL, 10 mM) was incubated with 100% mouse serum (final concentration of the serum was 80% after the mixing with prodrug solution) at 37° C. Aliquots (50 μL) were periodically removed at 2, 4, 8, 24, and 48 h, and diluted with cold ice CH3OH (100 μL) to precipitate proteins. The samples were centrifuged, and the supernatants were analyzed by HPLC. Stability was calculated based on the peak area of the prodrug at each time point. Experiments were performed in triplicate.

For the molecule `CC[C@H](C)[C@@H]([C@@H](CC(=O)N1CCC[C@H]1[C@H](OC)[C@@H](C)C(=O)N[C@H](C)[C@@H](O)c1ccccc1)OC)N(C)C(=O)[C@@H](NC(=O)[C@@H](NC)C(C)C)C(C)C` [MMAE, monomethyl auristatin E] (H-[NMeV]V[Dil][Dolaproine]-X2), the IC50 (commonly the concentration at which inhibition is half-maximal) with PSMA+ PC3 PIP cells worked out at 0.0392 nM; with PSMA− PC3 flu cells, 0.04 nM. Moreover, the “toxicity (weight loss, euthanasia)” value in series [1] is recorded as “severe toxicity”.

As for `CC[C@H](C)[C@@H](C(CC(=O)N1CCC[C@H]1[C@H](OC)[C@@H](C)C(=O)N[C@H](C)[C@@H](O)c1ccccc1)OC)N(C)C(=O)[C@@H](NC(=O)[C@H](C(C)C)N(C)C(=O)CC[C@H](NC(=O)CCCCCCC(=O)NCCCC[C@H](NC(=O)N[C@@H](CCC(=O)O)C(=O)O)C(=O)O)C(=O)O)C(C)C` (stereo partly drawn) [SBPD-2, (4S,7S,10S,15S,30S,34S)-4-((S)-Sec-butyl)-3-(2-((S)-2-((1R,2R)-3-(((1S,2R)-1-hydroxy-1-phenylpropan-2-yl)amino)-1-methoxy-2-methyl-3-oxopropyl)pyrrolidin-1-yl)-2-oxoethyl)-7,10-diisopropyl-5,11-dimethyl-6,9,12,17,24,32-hexaoxo-2-oxa-5,8,11,16,25,31,33-heptaazahexatriacontane-15,30,34,36-tetracarboxylic acid], in series [2], the remained intact turned out to be 90%.
